Two compounds from US6548550B1, “Pharmaceutical compositions containing N-palmitoylethanolamide and use thereof in the veterinary field” (Innovet Italia S.r.l., priority 2002, dated 2003) can be followed below.

Data set [1] can be described thus: Particle size analysis of micronized PEA (Mastersizer). Format: physicochemical. The protocol:
The micronization of PEA and its co-micronization with excipients were performed with compressed-air turbine micronizing apparatus. This apparatus is known and is not therefore described in greater detail. The product obtained was subjected to analysis of the particles with Mastersizer, μ version apparatus from Malvern Instruments Co. UK.

The subject of data set [2] is eosinophilic skin condition in cats. To be noted: for SIGNS plaque-granuloma-miliary scabs % improved / SIGNS plaque-granuloma-miliary scabs % unchanged / SIGNS plaque-granuloma-miliary scabs % worsened / SYMPTOMS pruritis-erythema-alopecia % improved / SYMPTOMS pruritis-erythema-alopecia % unchanged / SYMPTOMS pruritis-erythema-alopecia % worsened: cats. The protocol: Included in the investigation were 15 cats of European race with short hair, of which 9 were female and 6 were male, with ages of between 7 and 123 months. […] A numerical evaluation relating to the intensity and location of the signs and symptoms was assigned to each individual animal in accordance with the P.A.S.I. (psoriasis area severity index) “score” (Marks R. et al., 1989, Arch. Dermatol., 125:235-240). The improvements in the clinical signs and in the associated lesions were evaluated on the 15th and 30th days of treatment. The treatment consisted of a preparation in accordance with Example 3 of the pharmaceutical preparations given below, containing 120 mg of micronized N-palmitoylethanolamide. The active ingredient was administered in a proportion of 10 mg/kg/die for 30 days.

Where two headings read alike, the source gives them in different places.

In the case of `CCCCCCCCCCCCCCCC(=O)NCCO` [PEA, N-palmitoylethanolamide], in data set [1] (particle size <6μ), the “quantity % of particles <6μ” value is recorded as 80%. In addition, the “quantity % of particles <10μ” value in data set [1] (particle size <10μ) is recorded as approximately 96% approx. Also, the “quantity % of particles >14μ” value in data set [1] (particle size >14μ) was “traces”. In addition, in data set [2] (in vivo), the “side effects compared with cortisones” value is “does not have the serious side effects typical of these drugs”.
Consider `CCCCCCCCCCCCCCCC(=O)NCCO` [non-micronized PEA, N-palmitoylethanolamide], for which, in data set [2] (T15 (15th day of treatment)), the “SIGNS plaque-granuloma-miliary scabs % improved” value amounted to 14.6%, the “SIGNS plaque-granuloma-miliary scabs % unchanged” value is 85.4%, the “SIGNS plaque-granuloma-miliary scabs % worsened” value is 0% and the “SYMPTOMS pruritis-erythema-alopecia % improved” value is listed as 8.2%. In addition, in data set [2] (T15 (15th day of treatment)), the “SYMPTOMS pruritis-erythema-alopecia % unchanged” value came to 91.8% and the “SYMPTOMS pruritis-erythema-alopecia % worsened” value worked out at 0%. Moreover, in data set [2] (T30 (30th day of treatment)), the “SIGNS plaque-granuloma-miliary scabs % improved” value is on record as 51.4%, the “SIGNS plaque-granuloma-miliary scabs % unchanged” value was 48.6%, the “SIGNS plaque-granuloma-miliary scabs % worsened” value is given as 0% and the “SYMPTOMS pruritis-erythema-alopecia % improved” value amounted to 52%. Moreover, in data set [2] (T30 (30th day of treatment)), the “SYMPTOMS pruritis-erythema-alopecia % unchanged” value worked out at 48% and the “SYMPTOMS pruritis-erythema-alopecia % worsened” value is given as 0%.
